Legend:
Aurora B kinase = Aurora B kinase (Homo sapiens, UniProt Q96GD4); assay: HTRF KinEASE test of inhibitory activity against Aurora B kinase; type: biochemical; parameters: purchased Carna 05-102; conditions: Carna kinase, substrate S2
Protocol: (§1) Preparation of working solutions of compounds in DMSO with gradient concentrations: 0.2 mM solutions of the compounds in DMSO were prepared and serially diluted with DMSO to form working solutions with 10 gradient concentrations (corresponding to final compound concentrations of 1000 nM, 300 nM, 100 nM, 30 nM, 10 nM, 3 nM, 1 nM, 0.3 nM, 0.1 nM, and 0.03 nM in the reaction system).
(§2) Tests of inhibitory activity against Aurora B kinase and VEGFR2: The half maximal inhibitory concentrations (IC50) of the compounds against Aurora B kinase and VEGFR2 were determined using HTRF KinEASE-TK kit (Cisbio, Cat #62TKOPEC) and HTRF KinEASE-STK kit (Cisbio, Cat #61ST2BLE). A 2× kinase & Metal solution (Aurora B/Cat #05-102 and VEGFR2/Cat #08-191, both purchased from Carna) and a 2× Substrate & ATP solution (for Aurora B and VEGFR2, substrates S2 and TK were used, respectively) were prepared according to the kit instructions. The working solutions of the test compounds with gradient concentrations were added to a 384-well plate at 25 nL/well, and 2.5 μL of the 2× kinase & Metal solution was added to each well. The plate was sealed with a plate-sealing film, well shaken, centrifuged, and then incubated at 25° C. for 10 min. Then, the 2× Substrate & ATP solution was added at 2.5 μL/well, and the plate was incubated again at 25° C. for 30 min. Finally, a 2× XL665 & Antibody kinase detection reaction solution was added at 5 μL/well. After the plate was incubated at 25° C. for 60 min, the fluorescence signals at wavelengths of 665 nm and 620 nm in each well were measured by a microplate reader.
(§3) The 665 nm/620 nm fluorescence signal ratio (X) of each well was calculated. With the compound-free well as a negative control (Y) and the enzyme-free well as a positive control (Z), the inhibition rate of the compound in each test well against the corresponding kinase was calculated using the formula: inhibition (%)=100%−(X−Z)/(Y−Z)×100%, and the half maximal inhibitory concentration (IC50) of each compound against the corresponding kinase was calculated by GraphPad 7.0 software.

VEGFR2 = biological target: T1, VEGFR2 (Homo sapiens, UniProt P35968); assay: HTRF KinEASE test against VEGFR2, reported as relative selectivity IC50-VEGFR2/IC50-Aurora B; type: biochemical; conditions: ratio of IC50 against VEGFR2 to IC50 against Aurora B
T1 construct: purchased Carna 08-191
Protocol: as §1, §2, §3

[1] = Brain permeation assay in mice; type: in vivo; conditions: B/C, mouse, oral; female mice, 5 mg/kg intragastric, 4 h after administration; read-out: Brain permeation (ratio of compound concentration in brain tissue to concentration in plasma)
Protocol: The objective of this example was to test whether the compounds of the present disclosure are able to cross the blood-brain barrier (BBB). The compounds of the present disclosure were dissolved in a vehicle containing 5% dimethyl sulfoxide, 60% 1,3-propanediol, and 35% purified water, and intragastrically administered to B/C female mice aged 6 weeks (purchased from Guangdong Medical Laboratory Animal Center) at 5 mg/kg. The animals were sacrificed 4 h after the administration, and blood and brain tissue samples were collected. The blood samples were anticoagulated with K2-EDTA and centrifuged at 5000 rpm for 5 min to separate plasma. The brain tissue samples were accurately weighed and homogenized with a certain amount of phosphate-buffered saline (PBS) solution, and the biological samples were stored at −80° C. before analysis. After sample extraction, the compound concentration was determined using a liquid chromatography-tandem mass spectrometry (LC-MS/MS) system. Brain permeation was defined as the ratio of the compound concentration in brain tissue to the concentration in plasma.

Molt-4 cells = assay: Effects on tumor cell cycle, PI staining and flow cytometry; type: cell-based, human; conditions: 48 h
Description: When the activity of Aurora B kinase is inhibited in tumor cells, the arrangement and separation of chromosomes are blocked, leading to cytokinesis failure and the formation of tetraploid or polyploid cells. Moreover, severe genomic instability and mitotic catastrophe result in apoptosis. The intracellular DNA content can be mapped with propidium iodide (PI), a fluorescent dye that specifically binds to nucleic acid, so that cell states can be distinguished into sub-G0/G1 (apoptosis), G0/G1, S, G2/M (tetraploid), and polyploid states.
Experimental process: Molt-4 cells (human acute lymphoblastic leukemia cells, CRL-1582) were purchased from the American Type Culture Collection (ATCC). Molt-4 cells in the logarithmic growth phase were collected from suspension culture and counted. The cells were seeded into a 6-well plate at 10^6 cells/well and cultured overnight under normal conditions. The test compounds were prepared as 1 mM and 3 mM solutions in DMSO, and the solutions in DMSO were diluted 50-fold with culture medium. Finally, the above solutions were added to the culture system in a volume ratio of 1:19, achieving a final compound concentration of 1 μM or 3 μM in each well. After 48 h of incubation, the cells were collected by centrifugation. Each cell sample was resuspended in 300 μL of PBS, and the suspension was added dropwise to 700 μL of pre-cooled absolute ethanol. Then the mixture was gently inverted several times for thorough mixing to complete cell collection and fixation. The samples were left to stand at 4° C. for more than 12 h and then analyzed by flow cytometry.
A working dye solution was prepared by homogeneously mixing PBS, a 10 mg/mL PI stock solution, and a 10 mg/mL RNase A solution in a ratio of 1000:5:2. The fixed cell samples were centrifuged at 4° C. and 1000 rpm for 10 min. The supernatants were completely removed using a pipette, and the cells were washed twice with PBS and resuspended in the above working dye solution at […]. After incubation in a dark place at 37° C. for 30 min, the cells were filtered using a 200-mesh stainless steel strainer, and the filtrate was loaded onto a flow cytometer for cell cycle analysis (10,000 cells counted per sample).
Histograms showing DNA contents were obtained from the flow cytometry analysis, and the cell cycle distribution in each sample was analyzed using the flow cytometry data analysis software FlowJo. The mean (X) and standard deviation (SD) were calculated, and data were represented as X±SD. The apoptosis and the proportions of tetraploid and polyploid cells after Molt-4 cells were treated with different doses of the test compounds are shown in Table 3 below.

T1 sequence (P35968 790-1356 limits assumed): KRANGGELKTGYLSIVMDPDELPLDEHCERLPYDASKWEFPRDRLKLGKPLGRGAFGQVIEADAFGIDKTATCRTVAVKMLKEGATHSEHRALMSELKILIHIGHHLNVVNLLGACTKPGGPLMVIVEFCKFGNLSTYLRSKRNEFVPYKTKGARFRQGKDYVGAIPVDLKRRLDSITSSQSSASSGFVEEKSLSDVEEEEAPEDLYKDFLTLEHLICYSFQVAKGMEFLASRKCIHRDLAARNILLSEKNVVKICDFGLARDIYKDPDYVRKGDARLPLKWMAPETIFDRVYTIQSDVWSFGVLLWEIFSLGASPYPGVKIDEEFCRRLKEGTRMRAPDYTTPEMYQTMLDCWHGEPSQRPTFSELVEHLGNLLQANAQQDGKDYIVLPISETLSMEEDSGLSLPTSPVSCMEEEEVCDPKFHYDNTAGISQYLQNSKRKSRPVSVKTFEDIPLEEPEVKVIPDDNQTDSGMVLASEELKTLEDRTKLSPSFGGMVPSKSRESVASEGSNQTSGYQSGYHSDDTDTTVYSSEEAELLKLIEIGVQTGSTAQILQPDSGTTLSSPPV
Chain of Aurora B kinase (Q96GD4 whole entry): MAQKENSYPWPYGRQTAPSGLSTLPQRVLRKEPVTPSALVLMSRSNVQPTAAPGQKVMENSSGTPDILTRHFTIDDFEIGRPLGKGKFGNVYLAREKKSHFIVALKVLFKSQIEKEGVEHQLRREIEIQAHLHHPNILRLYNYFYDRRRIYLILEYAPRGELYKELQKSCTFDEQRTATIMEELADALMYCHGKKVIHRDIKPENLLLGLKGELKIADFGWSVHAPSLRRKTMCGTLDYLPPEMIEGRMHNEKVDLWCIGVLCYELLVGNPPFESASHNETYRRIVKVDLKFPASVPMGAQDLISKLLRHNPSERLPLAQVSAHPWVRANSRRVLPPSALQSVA
Chain of Aurora B kinase (Q9NQS7 803-916 partner limits assumed): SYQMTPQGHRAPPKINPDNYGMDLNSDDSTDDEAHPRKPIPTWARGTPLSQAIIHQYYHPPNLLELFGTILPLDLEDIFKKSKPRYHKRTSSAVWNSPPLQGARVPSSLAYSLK

| Compound | IC50 (Aurora B kinase) [nM] | Selectivity for Aurora B IC50-VEGFR2/IC50-Aurora B (VEGFR2) | other results |
| --- | --- | --- | --- |
| CCCCOc1ccc2c(Oc3ccc4c(C(=O)Nc5ccccc5N)cccc4c3)ccnc2c1 [Compound I-13] | 127 | 0.27 |  |
| CC(C)Oc1ccc2c(Oc3ccc4c(C(=O)Nc5ccccc5N)cccc4c3)ccnc2c1 [Compound I-7] | 417 | 0.17 |  |
| CCOc1ccc2c(Oc3ccc4c(C(=O)Nc5ccc(F)cc5N)cccc4c3)ccnc2c1 [Compound I-5] | 2.83 | 49.6 |  |
| O=C(NC1CCCCC1)c1cccc2cc(Oc3ccnc4cc(OCCF)ccc34)ccc12 [Compound I-35] | 5.26 | 9.55 |  |
| CCCOc1ccc2c(Oc3ccc4c(C(=O)Nc5ccccc5N)cccc4c3)ccnc2c1 [Compound I-11] | 33.9 | 0.78 |  |
| CCOc1ccc2c(Oc3ccc4c(C(=O)Nc5cc(F)c(F)c(F)c5N)cccc4c3)ccnc2c1 [Compound I-44] | 6.71 | 12.14 |  |
| COc1ccc2c(Oc3ccc4c(C(=O)Nc5cc(F)c(F)c(F)c5N)cccc4c3)ccnc2c1 [Compound I-10] | 3.52 | 13.34 |  |
| CCOc1ccc2c(Oc3ccc4c(C(=O)Nc5cc(F)ccc5N)cccc4c3)ccnc2c1 [Compound I-15] |  |  | Kp at 4 h [1]: 0.76 |
| CCCCOc1ccc2c(Oc3ccc4c(C(=O)Nc5ccc(C)cc5N)cccc4c3)ccnc2c1 [Compound I-14] | 53.1 | 18.84 |  |
| Nc1c(F)cccc1NC(=O)c1cccc2cc(Oc3ccnc4cc(OCCOC(F)F)cc(F)c34)ccc12 [Compound I-28] | 4.12 | 9.68 |  |
| CN(C)CCOc1ccc2c(Oc3ccc4c(C(=O)NC5CC(F)(F)C5)cccc4c3)ccnc2c1 [Compound I-42] | 3.86 | 13.9 |  |
| CCOc1cc(F)c2c(Oc3ccc4c(C(=O)Nc5cccc(F)c5N)cccc4c3)ccnc2c1 [Compound I-18] | 6.89 | 9.75 |  |
| CCOc1ccc2c(Oc3ccc4c(C(=O)Nc5ccccc5N)cccc4c3)ccnc2c1 [Compound I-1] |  |  | Kp at 4 h [1]: 0.73 |
| CCOc1cc(F)c2c(Oc3ccc4c(C(=O)Nc5ccc(F)c(F)c5N)cccc4c3)ccnc2c1 [Compound I-19] | 5.62 | 9.08 |  |
| COc1cc(F)c2c(Oc3ccc4c(C(=O)Nc5ccc(F)c(Cl)c5N)cccc4c3)ccnc2c1 [Compound I-36] | 2.92 | 7.75 |  |
| CCOc1cc(F)c2c(Oc3ccc4c(C(=O)Nc5cc(F)ccc5N)cccc4c3)ccnc2c1 [Compound I-20] |  |  | Kp at 4 h [1]: 0.67 |
| CCCOc1ccc2c(Oc3ccc4c(C(=O)Nc5ccc(F)cc5N)cccc4c3)ccnc2c1 [Compound I-12] | 19 | 5.12 |  |
| CCOc1cc(F)c2c(Oc3ccc4c(C(=O)Nc5ccccc5N)cccc4c3)ccnc2c1 [Compound I-17] | 4.01 | 8.16 | Kp at 4 h [1]: 0.6 |
| CCOc1ccc2c(Oc3ccc4c(C(=O)Nc5ccc(F)c(F)c5N)cccc4c3)ccnc2c1 [Compound I-6] | 3.18 | 18.64 |  |

The next lines start with results.

| IC50 (Aurora B kinase) [nM] | Selectivity for Aurora B IC50-VEGFR2/IC50-Aurora B (VEGFR2) | Compound | other results |
| --- | --- | --- | --- |
| 2.22 | 127.51 | O=C(NC1CC(F)(F)C1)c1cccc2cc(Oc3ccnc4cc(OCC(F)F)ccc34)ccc12 [Compound I-41] |  |
| 1.7 | 109.61 | COCCOc1ccc2c(Oc3ccc4c(C(=O)NC5CC6(COC6)C5)cccc4c3)ccnc2c1 [Compound I-24] |  |
| 2.01 | 8.07 | Nc1c(NC(=O)c2cccc3cc(Oc4ccnc5cc(OCCF)ccc45)ccc23)ccc(F)c1F [Compound I-32] |  |
| 0.896 | 10.23 | COCCOc1ccc2c(Oc3ccc4c(C(=O)NC5CC(F)C5)cccc4c3)ccnc2c1 (stereo not drawn) [Compound I-27] |  |
| 2.65 | 376.79 | O=C(NC1CC(F)(F)C1)c1cccc2cc(Oc3ccnc4cc(OCCF)ccc34)ccc12 [Compound I-33] |  |
| 1.24 | 9.49 | COCCOc1ccc2c(Oc3ccc4c(C(=O)NC5CC(F)(F)C5)cccc4c3)ccnc2c1 [Compound I-23] |  |
| 2.63 | 14.19 | COc1cc(F)c2c(Oc3ccc4c(C(=O)Nc5ccc(F)c(F)c5N)cccc4c3)ccnc2c1 [Compound I-37] | Kp at 4 h [1]: 0.6; Apoptosis (%) DNA < 2N (Molt-4 cells; dose 1 μM): 22.55 ± 0.21%; Polyploid (%) DNA > 4N (Molt-4 cells; dose 1 μM): 55.25 ± 5.02%; Tetraploid (%) DNA = 4N (Molt-4 cells; dose 1 μM): 4.68 ± 3.46%; Total (apoptosis + tetraploid + polyploid) (Molt-4 cells; dose 1 μM): 82.48; Apoptosis (%) DNA < 2N (Molt-4 cells; dose 3 μM): 23.75 ± 2.33%; Polyploid (%) DNA > 4N (Molt-4 cells; dose 3 μM): 53.75 ± 4.17%; Tetraploid (%) DNA = 4N (Molt-4 cells; dose 3 μM): 5.75 ± 3.15%; Total (apoptosis + tetraploid + polyploid) (Molt-4 cells; dose 3 μM): 83.25 |
| 1.55 | 38.05 | COCCOc1ccc2c(Oc3ccc4c(C(=O)NC5CC6(CCC6)C5)cccc4c3)ccnc2c1 [Compound I-25] |  |
| 2.12 | 12.27 | O=C(NC1CC(F)(F)C1)c1cccc2cc(Oc3ccnc4cc(OCCOC(F)F)ccc34)ccc12 [Compound I-21] |  |

Reference: patent publication US20260216169A1, “NAPHTHYLAMIDE COMPOUND, AND PREPARATION METHOD THEREFOR AND USE THEREOF” (SHENZHEN CHIPSCREEN BIOSCIENCES CO., LTD., priority 2022, published 2026)
